These results are taken from US20230129485A1, “SYSTEM AND METHOD FOR DETERMINING MATERIAL PROPERTIES OF MOLECULAR SYSTEMS FROM AN AB-INITIO PARAMETERIZED FORCE-FIELD” (InterX, Inc., priority 2021, published 2023).

Data set [1] can be described thus: Free energy of hydration predicted with the QM-parameterized force field model (ARROW FF), classical MD and PIMD simulation in a water box. The conditions noted are these: for water Arrow MD Error / water Arrow PIMD8 Error: Table 3; for water Arrow MD Error: absolute error of MD hydration free energy vs experiment; for water Arrow PIMD8 Error: absolute error of PIMD8 hydration free energy vs experiment; for Arrow PIMD8 Error: absolute error vs Exp (hydration). From the text:
For example, the example QM-parameterized force-field molecular simulation process 400 can use Bennett Acceptance Ratio (BAR) to compute the free energy of hydration/solvation of the molecule in water or any other solvent. In some implementations, the analysis of the molecular dynamics simulations includes analysis, predication, and visualization of ensemble properties of atoms/molecules from atomic and molecular trajectories using the optimized parameters of the QM-parameterized force field model (i.e., the quantum mechanics rule-based reasoning technique) and the QM-parameterized force field model.
In some simulations of the QM-parameterized force field molecular simulation process, the molecules were placed in a water or cyclohexane box of size 32×32×32 Å3. Particle-Mesh Ewald (PME) algorithm was used to compute the electrostatic interactions. A 32×32×32 grid mesh and 5th power spline interpolation order can be used to compute the inverse PME sum. 9 Å cutoffs were used to compute the direct PME sum as well as the exchange and dispersion interactions. Bulk corrections were applied to account for distance cut-off of dispersion interactions. Solvation free energies were computed by decoupling the interactions between the solute and the solvent molecules. Electrostatic, exchange-repulsion and dispersion interactions were switched off simultaneously using a lambda-dependent scaling (a scaling factor power=2 was used) and a soft-coring algorithm (maximal soft-coring radius=1.5 Å, soft-coring radius scaling factor power=1). 15 lambda points unequally spaced (X=0, 0.05, 0.1, 0.2, 0.3, 0.4, 0.5, 0.6, 0.7, 0.75, 0.8, 0.85, 0.9, 0.95, 1.0) were used to decouple the solute-solvent intermolecular interactions.
In some simulations of the QM-parameterized force field molecular simulation process, energy minimization (10,000 steps) using the steepest descent algorithm was initially performed on all the simulation systems. This was followed by a 50 ps equilibration and 1 ns production runs in the isothermal-isobaric ensemble (NPT). […] Pressure was maintained at 1 atm using a MTTK barostat (relaxation time=5 ps). A Multiple Time Step (MTS) algorithm was used to integrate the equations of motion both for the classical and path-integral runs. […] The calculations were performed using the QM-parameterized force field model.
Using the QM-parameterized force field model, the QM-parameterized force field device can compute or predict the solvation free energies using both the Bennett acceptance ratio (BAR) and thermodynamic integration (TI) method with <dH/dλ> values interpolated by cubic splines. […] FIG. 7A illustrates a <dH/dλ> dependence for desolvation of Anthracene in water. FIG. 7B illustrates accumulated statistical errors for TI calculations of AG desolvation of Anthracene in water.

Data set [2] can be described thus: Free energy of hydration by COSMO implicit solvent model (MolPro ver. 2012). The following applies: absolute error vs Exp (hydration). As for the experimental part: (§1) Due to unavailability of free energy data for the original COSMO model, the free energies of solvation for the molecule dataset are calculated using MolPro ver. […] The comparisons to other implicit solvent models such as SMD, PCM and COSMO-RS are limited to the overlap of the molecules computed using QM-parameterized force field model. The free energies of hydration as predicted by these implicit solvent models (SMD, PCM) were received.

The conditions of data set [3]: Table 3; free energy of hydration, experimental; cited from earlier work.
A short description of data set [4]: Free energy of hydration by COSMO-RS. As for the experimental part:
as §1

For data set [5] the following is noted: implicit solvent model, values received; cited from earlier work.
Data set [6] can be described thus: Free energy of hydration by Polarizable Continuum Model (PCM). The following applies: absolute error vs Exp (hydration). On the procedure: as §1
Data set [7] in a line: Free energy of hydration by Solvation Model Dielectric (SMD) implicit solvent model. The conditions noted are these: absolute error vs Exp (hydration). As for the experimental part: as §1
For data set [8] the following is noted: implicit solvent model, values received; cited from earlier work. This is another data set of the same source.
Data set [9] in a line: CHEX/H2O partition coefficient (log D) predicted with the QM-parameterized force field model (ARROW FF). An excerpt:
In some simulations, the example QM-parameterized force-field molecular simulation process includes using the functional form of the bonded interactions, with force constants and equilibrium values fitted to QM energies at the MP2/aug-cc-pVTZ level of theory. In some simulations, solvents of water and cyclohexane are selected. Cyclohexane (CHEX) is nonpolar and equilibrates relatively quickly. Reliable experimental data for both CHEX solvation free energies, as well as for the CHEX/H2O partition coefficients are used in these simulations.
In some example simulations, solutes containing neutral chemical functional groups, for example carboxylic acids, alkanes, alkenes, aromatics, aldehydes, ketones, alcohols, amides, esters, thiols, sulfides, disulfides and heterocycles, are used. The simulations were performed independently by four groups using their own respective computational resources and architectures, and then averaged. FIGS. 9A-9C show solvation and hydration free energies predictions of various solutes, using the QM-parameterized force field model, in some embodiments.
The straight line is a line of agreement between experimental and simulated/predicted values, and the gray bar is the range or chemical accuracy. […] The molecules here are a subset of those in a) because only those with experimental values for CHEX solvation can be included.

Each structure is given as a SMILES string.

Take `CN` [methylamine]: in data set [1], the “water Arrow MD Error” value is 2.05 kJ/mol, the “water Arrow PIMD8 Error” value is 0.669 kJ/mol and the “Arrow PIMD8 Error” value was 0.669 kJ/mol. The “COSMO/Molpro Error” value in [2] is 5.19 kJ/mol. Moreover, the “water Exp (hydration)” value in [3] was -19 kJ/mol. The compound further had a COSMO-RS error in [4] of 1.09 kJ/mol.

Regarding `c1ccc2cc3cc4ccccc4cc3cc2c1` [tetracene], in data set [1], the “water Arrow MD Error” value was 1.63 kJ/mol, the “water Arrow PIMD8 Error” value is 1.84 kJ/mol and the “Arrow PIMD8 Error” value is 1.84 kJ/mol. Also, the “COSMO/Molpro Error” value in [2] came to 5.98 kJ/mol. Besides, the “water Exp (hydration)” value in data set [3] was -23 kJ/mol.

For `C1CCCC1` [Cyclopentane], in data set [1], the “water Arrow MD Error” value is 2.97 kJ/mol and the “water Arrow PIMD8 Error” value was 0.502 kJ/mol. The “water Exp (hydration)” value in data set [3] was 5.02 kJ/mol.

Regarding `c1ccc2cc3ccccc3cc2c1` [Anthracene], the “PCM free energy of hydration” value in [5] is -12.1 kJ/mol. Further, the “estimated statistical error of computed free energy of solvation” value in [1] (1 ns trajectory, TI, FIG. 7B, in water) was “about 0.2 kcal/mol”. Also, in [1], the “water Arrow MD Error” value was 1.34 kJ/mol, the “water Arrow PIMD8 Error” value was 0.29 kJ/mol and the “Arrow PIMD8 Error” value is 0.29 kJ/mol. For the same compound, the “PCM Error” value in data set [6] worked out at 4.39 kJ/mol. In [7], the “SMD Error” value was 7.32 kJ/mol. In addition, the “COSMO/Molpro Error” value in [2] worked out at 7.41 kJ/mol. Further, the “SMD free energy of hydration” value in data set [8] is -9.2 kJ/mol. Besides, the “water Exp (hydration)” value in data set [3] was -16.5 kJ/mol. In data set [4], this compound came in with a COSMO-RS error of 0.711 kJ/mol.

Regarding `Cc1ccc(O)cc1` [p-cresol], in [9], the “log D Arrow MD Error” value is on record as 0.73, the “log D Arrow PIMD Error” value is given as 0.11, the “logD Arrow MD Error” value is 0.73 and the “logD Arrow PIMD Error” value is 0.11.

With `c1ccc(-c2ccccc2)cc1` [Biphenyl], in [1], the “water Arrow MD Error” value is 4.9 kJ/mol, the “water Arrow PIMD8 Error” value was 0.544 kJ/mol and the “Arrow PIMD8 Error” value is 0.544 kJ/mol. In addition, the “COSMO/Molpro Error” value in data set [2] came out at 11 kJ/mol. For the same compound, in [3], the “water Exp (hydration)” value is -11.1 kJ/mol. For the same compound, the COSMO-RS error in data set [4] came to 1.3 kJ/mol.

Consider `OC1CCCCC1` [Cyclohexanol], for which, in data set [1], the “water Arrow MD Error” value was 4.56 kJ/mol, the “water Arrow PIMD8 Error” value was 1.42 kJ/mol and the “Arrow PIMD8 Error” value was 1.42 kJ/mol. Besides, the “COSMO/Molpro Error” value in data set [2] was found to be 4.31 kJ/mol. Further, the “water Exp (hydration)” value in data set [3] was -22.9 kJ/mol. This compound came in with a COSMO-RS error in [4] of 1.38 kJ/mol.

Consider `c1ccc2c(c1)ccc1ccccc12` [phenanthrene], for which, in [1], the “water Arrow MD Error” value was 1.46 kJ/mol, the “water Arrow PIMD8 Error” value was 0.38 kJ/mol and the “Arrow PIMD8 Error” value is 0.38 kJ/mol. In addition, the “COSMO/Molpro Error” value in data set [2] was 8.24 kJ/mol. Also, in [3], the “water Exp (hydration)” value was -16.2 kJ/mol.

Take `CCOCC` [DiethylEther]: the “PCM free energy of hydration” value in [5] was -7.95 kJ/mol. Besides, in [1], the “water Arrow MD Error” value is 3.97 kJ/mol, the “water Arrow PIMD8 Error” value was 0.418 kJ/mol and the “Arrow PIMD8 Error” value was 0.418 kJ/mol. Further, the “PCM Error” value in data set [6] was 0.628 kJ/mol. Moreover, the “SMD Error” value in [7] came out at 2.3 kJ/mol. In addition, in data set [2], the “COSMO/Molpro Error” value turned out to be 8.37 kJ/mol. Further, in [8], the “SMD free energy of hydration” value was -5.02 kJ/mol. In addition, the “water Exp (hydration)” value in data set [3] is -7.32 kJ/mol.

On to `C1CCCCCC1` [Cycloheptane], for which, in [1], the “water Arrow MD Error” value was 2.8 kJ/mol, the “water Arrow PIMD8 Error” value is 0.502 kJ/mol and the “Arrow PIMD8 Error” value is 0.502 kJ/mol. In addition, the “COSMO/Molpro Error” value in data set [2] is 5.52 kJ/mol. The “water Exp (hydration)” value in data set [3] was 3.31 kJ/mol.

For `CC(C)(C)C` [NeoPentane], the “PCM free energy of hydration” value in data set [5] is -1.26 kJ/mol. In addition, in data set [1], the “water Arrow MD Error” value was 4.39 kJ/mol, the “water Arrow PIMD8 Error” value is 0.502 kJ/mol and the “Arrow PIMD8 Error” value was 0.502 kJ/mol. In addition, the “PCM Error” value in data set [6] is 11.7 kJ/mol. Moreover, the “SMD Error” value in data set [7] was 1.26 kJ/mol. For the same compound, the “COSMO/Molpro Error” value in [2] turned out to be 13.6 kJ/mol. Further, in data set [8], the “SMD free energy of hydration” value was 9.2 kJ/mol. The “water Exp (hydration)” value in data set [3] was 10.5 kJ/mol.

With `CCS` [EthaneThiol], the “PCM free energy of hydration” value in data set [5] was -8.79 kJ/mol. In data set [1], the “water Arrow MD Error” value was 3.93 kJ/mol, the “water Arrow PIMD8 Error” value was 1.8 kJ/mol and the “Arrow PIMD8 Error” value was 1.8 kJ/mol. Further, in data set [6], the “PCM Error” value was found to be 3.6 kJ/mol. Further, in data set [7], the “SMD Error” value amounted to 1 kJ/mol. Also, the “COSMO/Molpro Error” value in [2] was 11.3 kJ/mol. Moreover, in data set [8], the “SMD free energy of hydration” value is -4.18 kJ/mol. Moreover, the “water Exp (hydration)” value in data set [3] was -5.19 kJ/mol.

Turning to `CCCOC` [MethylPropylEther], in data set [5], the “PCM free energy of hydration” value was -7.53 kJ/mol. Moreover, in data set [1], the “water Arrow MD Error” value was 2.76 kJ/mol, the “water Arrow PIMD8 Error” value was 0 kJ/mol and the “Arrow PIMD8 Error” value is 0 kJ/mol. Besides, the “PCM Error” value in data set [6] is 0.586 kJ/mol. Also, the “SMD Error” value in [7] was 4.85 kJ/mol. The “COSMO/Molpro Error” value in data set [2] worked out at 13.3 kJ/mol. Further, the “SMD free energy of hydration” value in [8] is -2.09 kJ/mol. In addition, the “water Exp (hydration)” value in data set [3] was -6.95 kJ/mol.

As for `CC(=O)N(C)C` [DiMethylAcetamide], the “COSMO/Molpro Error” value in data set [2] worked out at 9.67 kJ/mol. Further, the COSMO-RS error in data set [4] was found to be 1.55 kJ/mol.

With `CC(C)(C)O` [2-Methyl-2-Propanol], in data set [1], the “water Arrow MD Error” value was 3.56 kJ/mol, the “water Arrow PIMD8 Error” value is 1.46 kJ/mol and the “Arrow PIMD8 Error” value is 1.46 kJ/mol. Moreover, in data set [6], the “PCM Error” value was 6.32 kJ/mol. Also, in [7], the “SMD Error” value was determined as 2.97 kJ/mol. For the same compound, the “COSMO/Molpro Error” value in [2] stood at 5.48 kJ/mol. In data set [4], the COSMO-RS error stood at 0.418 kJ/mol.

In the case of `CCSCC` [DiEthylSulfide], the “PCM free energy of hydration” value in [5] is -8.37 kJ/mol. Also, in data set [1], the “water Arrow MD Error” value was 3.72 kJ/mol, the “water Arrow PIMD8 Error” value is 0.502 kJ/mol and the “Arrow PIMD8 Error” value was 0.502 kJ/mol. Besides, the “PCM Error” value in [6] is 2.38 kJ/mol. The “SMD Error” value in data set [7] turned out to be 5.15 kJ/mol. The “COSMO/Molpro Error” value in data set [2] amounted to 14.1 kJ/mol. Also, in data set [8], the “SMD free energy of hydration” value is -0.837 kJ/mol. For the same compound, in data set [3], the “water Exp (hydration)” value is -5.98 kJ/mol.

As to `c1cc2ccc3cccc4ccc(c1)c2c34` [pyrene], in data set [1], the “water Arrow MD Error” value is 1.88 kJ/mol, the “water Arrow PIMD8 Error” value was 0.042 kJ/mol and the “Arrow PIMD8 Error” value is 0.042 kJ/mol. In [2], the “COSMO/Molpro Error” value stood at 5.52 kJ/mol. Further, the “water Exp (hydration)” value in data set [3] is -18.9 kJ/mol.
